Assays:
[1] = biological target: T1, caspase 3 (Homo sapiens, UniProt P42574); experiment: Caspase 3 activation assay with recombinant proteins; type: biochemical; details: in %
T1 sequence (P42574 29-277): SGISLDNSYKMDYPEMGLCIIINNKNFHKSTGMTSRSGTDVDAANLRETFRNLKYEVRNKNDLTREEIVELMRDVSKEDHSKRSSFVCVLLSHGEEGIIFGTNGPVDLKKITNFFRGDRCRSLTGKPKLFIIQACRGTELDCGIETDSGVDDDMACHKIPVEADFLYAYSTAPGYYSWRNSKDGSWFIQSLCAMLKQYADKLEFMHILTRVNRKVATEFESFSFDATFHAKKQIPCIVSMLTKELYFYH
Method: (§1) The specificity of LPT99 was tested in vitro on Apaf1, caspase 3, and caspase 9 (proteins from the apoptotic cascade), and a broad panel of potential pharmacological targets.
(§2) LPT99 inhibited the formation of the apoptosome complex composed by recombinant Apaf1, cyt c, deoxyadenosine triphosphate (dATP), and caspase 9. This activity was measured as inhibition of caspase 3 activation. […] To evaluate the specificity of the inhibition, an assay of caspase 3 and 9 activation was set up with recombinant proteins. The inhibitions of caspase 3 and 9 were 7.6±14.7 and 5.3±3.5, respectively, for LPT99.

[2] = biological target: T2, caspase 9 (Homo sapiens, UniProt P55211); experiment: Caspase 9 activation assay with recombinant proteins; type: biochemical; details: in %
T2 sequence (P55211 1-416): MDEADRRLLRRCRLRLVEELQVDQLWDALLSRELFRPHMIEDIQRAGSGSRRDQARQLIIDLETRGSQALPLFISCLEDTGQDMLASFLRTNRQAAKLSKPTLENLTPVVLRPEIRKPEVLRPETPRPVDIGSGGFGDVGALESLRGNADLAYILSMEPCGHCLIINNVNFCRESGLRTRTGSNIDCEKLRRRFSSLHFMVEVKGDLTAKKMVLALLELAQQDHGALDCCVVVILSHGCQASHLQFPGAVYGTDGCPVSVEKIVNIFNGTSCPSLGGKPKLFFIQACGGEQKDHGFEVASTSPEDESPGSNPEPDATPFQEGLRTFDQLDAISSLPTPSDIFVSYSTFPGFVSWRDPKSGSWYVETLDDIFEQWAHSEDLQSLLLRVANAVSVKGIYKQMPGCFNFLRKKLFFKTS
Method: as §1, §2

[3] = test system: A549 cells; experiment: Proliferation of non-apoptotic A549 cells (flow cytometry, doubling time); type: cell-based; details: A549 cells cultured up to 6 days; reversible on removal
Method: The effect of LPT99 on proliferation of non-apoptotic cells was studied. A549 cells were cultured in the presence of LPT99 for up to 6 days; the cell number was monitored by flow cytometry, and doubling time was calculated.

[4] = test system: panel of receptors (44 GPCR and 4 non-GPCR), 4 ion channels, and 3 transporters; experiment: Off-target selectivity panel; type: binding; details: 10 μM
Method: To identify off-target activities of LPT99, its selectivity against a panel of receptors (44 G-protein-coupled receptors [GPCR] and 4 non-GPCR), 4 ion channels, and 3 transporters were analyzed. The cell line, HEI-OC1 (house ear institute organ of Corti 1), which expresses several characteristic markers of the organ of Corti sensory cells (Kalinec, et al. , Audiol. Neurootol. 2003, 8(4), 177-89), was used to evaluate the efficacy of LPT99 in preventing apoptosis due to […]. Cells were pre-incubated with LPT99, followed by […] for 24 hours.
For 14 of the tested targets—adenosine receptor 3 (A3); cholecystokinin: cholecystokinin receptor 1 (CCK1); melatonin receptor (MT1); neurokinin (NK2 and NK3); opioid (kOP and mOP); serotonin receptors (5HT-1A, 5HT-2A, 5HT−2B and 5HT−7); and vasopressin (V1A; Na+channel site 2 and Cl-GABA-gated channel)—the LPT99 affinity was >50%. At 1 μM, the inhibition of 13 of these targets was <50%, indicating a very low affinity with LPT99.

[5] = test system: CisPt-induced hearing loss; experiment: Model of CisPt-induced hearing loss in rats (TT administration); type: in vivo, rat; details: TT administration of LPT99 in hydrogel, dose dependent
Method: The protective effect of LPT99 was evaluated 3 days […] administration by functional measures, such as auditory brainstem response (ABR) threshold shift, DPOAE, and expression of biomarkers of apoptosis in cochlea and cytocochleograms.

[6] = test system: noise-induced ABR threshold shift; experiment: Noise trauma ABR threshold study; type: in vivo; details: at 10 and 21 days; TRAUMA+LPT99 group
[7] = test system: ion channels, including hERG potassium channels; experiment: Effects on ion channels including hERG in CHO and HEK 293 cells; type: cell-based
From the text: Torsadogenic refers to the development of torsade de Pointes (TdP) arrhythmias

[8] = GLP acute systemic toxicity study, single IP dose, Sprague-Dawley rats; type: in vivo, rat
Method: A GLP acute systemic toxicity study was conducted with LPT99 administered via IP injection in Sprague-Dawley rats. The acute systemic toxicity study was preceded by a non-GLP maximum tolerated dose (MTD) toxicity study, via the same administration and test system, which determined the MTD of LTP99 to be 1000 mg/kg.
LPT99 was suspended in vehicle [0.5% w/v methylcellulose and 0.1% v/v TWEEN® 80 in Milli-Q water] and administered intraperitoneally to Sprague-Dawley rats as a single dose at the doses of 100 (low—G2/G2TK), 300 (mid—G3/G3TK), and 750 (high—G4/G4TK) mg/kg body weight. The rats in vehicle control groups (G1/G1TK) received the vehicle alone. The dose volume administered was at an equivolume of 10 mL/kg body weight for all groups.
The main toxicity groups consist of 15 rats/sex/group in G1 and G4 groups and 10 rats/sex/group in G2 and G3 groups. The toxicokinetic groups consisted of 6 males and 6 female rats each for the prevention groups, whereas the vehicle control group had 3 male and 3 female rats.

COc1ccc2[nH]cc(CCNC(=O)CC3C(=O)N(CCc4ccc(Cl)cc4Cl)CC(=O)N3CCc3cccs3)c2c1 (stereo not drawn) [LPT99, 2-(4-(2,4-dichlorophenethyl)-3,6-dioxo-1-(2-(thiophen-2-yl)ethyl)piperazin-2-yl)-N-(2-(5-methoxy-1H-indol-3-yl)ethyl)acetamide]
inhibition of caspase 3 [1]: 7.6±14.7
inhibition of caspase 9 [2]: 5.3±3.5
effect on proliferation of non-apoptotic cells [3]: delayed cellular proliferation by accumulation of cells at the G1 phase of the cell cycle
in vitro inhibition for 41 of the tested targets [4]: < 50%
protection against CisPt-induced hearing loss vs vehicle control [5]: protected against CisPt-induced hearing loss
ABR Threshold shift after noise exposure [6]: back at basal levels
torsadogenic risk [7]: low torsadogenic risk
food consumption ([8]; 750 mg/kg, males days 1-7, females days 1-4, vs control): statistically significant reduction in the food consumption
tolerability ([8]; single IP 100, 300, 750 mg/kg): generally safe and well tolerated

— patent US20220062166A1, “Self-Gelling Solutions for Administration of Therapeutics to the Inner Ear” (Spiral Therapeutics, Inc., priority 2019, published 2022)
